Experimental data from patent publication US20100120921A1, “RENIN INHIBITORS FOR TREATMENT OF HYPERTENSION IN PATIENTS WITH HIGH SODIUM DIET” (NOVARTIS AG, priority 2007, published 2010).
Entries after “also recorded” stand apart in the source; their conditions may differ.

Tested on: patients with systolic hypertension
Experiment: 12-week randomized, open-label, multi-center, cross-over clinical study of aliskiren 300 mg on high versus low sodium diet (24-hour ABPM)
Format: in vivo, human
Conditions: aliskiren 300 mg once daily; 4 weeks high sodium (≧200 mmol/day) vs 4 weeks low sodium (≦100 mmol/day) diet; non-inferiority margin 4 mmHg
Experimental: The effect of Aliskiren (300 mg) on reduction in mean 24-hour ambulatory blood pressure systolic hypertensive patients using low and high sodium diets is examined in a 12-week, randomized, open-label, multi-center, cross-over study. Subjects with systolic hypertension have a 2-4 week washout of their current antihypertensive medications. Patients who meet 8-hour ABPM criteria at week 0 (ABPM mean daytime systolic blood pressure ≧135 mmHg and <160 mmHg) are randomized to either a high sodium (≧200 mmol/day) or low sodium (≦100 mmol/day) diet and will be dispensed aliskiren 300 mg.
After 2 and 4 weeks on the assigned sodium level diet, 24-hour urine (Bentley, Brook 2006) collections for sodium and creatinine are collected and measured to confirm adherence to the diet. After 4 weeks on the assigned sodium level diet, 24-hour ABPM is measured. Patients are then crossed over to the other level sodium diet. Those patients who had high sodium diet for the first four weeks start having low sodium diet for the next 4 weeks and vice versa. After 2 and 4 weeks on the new diet, 24-hour urine collections for sodium and creatinine are again collected and measured to confirm adherence to the diet. After 4 weeks on the newly assigned sodium level diet, 24-hour ABPM are measured. […]

Structure (SMILES): COCCCOc1cc(C[C@@H](C[C@H](N)[C@@H](O)C[C@H](C(=O)NCC(C)(C)C(N)=O)C(C)C)C(C)C)ccc1OC [aliskiren, 2(S),4(S),5(S),7(S)—N-(3-amino-2,2-dimethyl-3-oxopropyl)-2,7-di(1-methylethyl)-4-hydroxy-5-amino-8-[4-methoxy-3-(3-methoxy-propoxy)phenyl]-octanamide]
- antihypertensive effect (change in mean 24-hour ambulatory blood pressure) on high versus low sodium diet: the same (within the BP boundaries indicated) regardless of whether the subject ingests a high or a low sodium diet; also recorded: reduce blood pressure efficiently irrespective of the sodium intake
